PMC9575004 (Journal of Molecular Structure, 2022)

What was measured:
[1] = target: T1, ovine COX-1 (Ovis aries, UniProt P05979); test: In vitro COX-1 inhibition, enzyme immunoassay; type: biochemical
T1 sequence (P05979 25-600): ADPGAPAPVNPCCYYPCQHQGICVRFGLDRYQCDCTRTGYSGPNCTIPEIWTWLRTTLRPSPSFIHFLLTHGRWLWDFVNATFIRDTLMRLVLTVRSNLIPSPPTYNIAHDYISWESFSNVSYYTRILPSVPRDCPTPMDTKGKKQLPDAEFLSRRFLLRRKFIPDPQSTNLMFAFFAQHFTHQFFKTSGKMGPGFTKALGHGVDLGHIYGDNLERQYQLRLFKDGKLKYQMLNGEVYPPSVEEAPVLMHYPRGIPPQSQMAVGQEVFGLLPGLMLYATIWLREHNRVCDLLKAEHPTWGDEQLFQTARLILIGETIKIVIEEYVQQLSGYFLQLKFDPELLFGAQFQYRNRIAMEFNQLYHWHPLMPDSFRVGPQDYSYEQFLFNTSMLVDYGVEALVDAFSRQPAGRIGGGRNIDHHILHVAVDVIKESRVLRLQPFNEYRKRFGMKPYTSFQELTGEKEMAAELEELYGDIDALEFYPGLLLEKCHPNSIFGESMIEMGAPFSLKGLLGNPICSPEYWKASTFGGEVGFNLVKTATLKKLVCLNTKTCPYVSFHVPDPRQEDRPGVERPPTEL

[2] = target: T2, human recombinant COX-2 (Homo sapiens, UniProt P35354); test: In vitro COX-2 inhibition, enzyme immunoassay; type: biochemical; conditions: for COX-2 S. I. (in vitro COX-2 selectivity index, COX-1/COX-2): ratio COX-1 IC50/COX-2 IC50
T2 sequence (P35354 18-604): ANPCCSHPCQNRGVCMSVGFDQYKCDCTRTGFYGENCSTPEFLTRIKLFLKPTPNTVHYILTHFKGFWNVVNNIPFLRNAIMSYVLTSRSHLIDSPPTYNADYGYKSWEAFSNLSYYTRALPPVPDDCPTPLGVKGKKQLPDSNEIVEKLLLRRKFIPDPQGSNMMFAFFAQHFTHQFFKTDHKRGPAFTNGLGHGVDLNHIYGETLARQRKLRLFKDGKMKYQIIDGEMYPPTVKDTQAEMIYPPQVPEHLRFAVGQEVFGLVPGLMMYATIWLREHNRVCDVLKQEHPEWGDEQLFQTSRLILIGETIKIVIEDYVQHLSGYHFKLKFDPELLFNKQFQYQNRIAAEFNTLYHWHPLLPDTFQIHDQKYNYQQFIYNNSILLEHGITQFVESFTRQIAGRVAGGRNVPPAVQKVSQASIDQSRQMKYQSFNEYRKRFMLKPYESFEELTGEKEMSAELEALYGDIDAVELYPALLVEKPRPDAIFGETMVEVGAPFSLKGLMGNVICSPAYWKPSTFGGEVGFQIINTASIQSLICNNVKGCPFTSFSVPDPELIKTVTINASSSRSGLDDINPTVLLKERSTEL

| Compound | IC50 [1] | IC50 [2] | COX-2 S. I. (in vitro COX-2 selectivity index, COX-1/COX-2) [2] |
| --- | --- | --- | --- |
| CCCCCCCCCCCc1c2oc3cccnc3nc-2cc(O)c1=O [Compound 7, 8-hydroxy-6-undecyl-7H-benzo[b]pyrido[2,3-e][1,4]oxazin-7-one] | 3.19 µM | 1.56 µM | 2.04 |
| CCCCCCCCCCCC1=C(O)C(=N/C)/C=C(O)C/1=N/C [Compound 5, (3E, 6E)-3,6-bis(Methylimino)-2-undecylcyclohexa-1,4-diene-1,4-diol] | 7.65 µM | 2.56 µM | 2.98 |
| CCCCCCCCCCCC1=C(O)C(=O)C=C(NC)C1=O [Compound 2, 2-Hydroxy-5-(methylamino)-3-undecylcyclohexa-2,5-diene-1,4-dione] | 6.54 µM | 3.1 µM | 2.11 |
| CCCCCCCCCCCC1=C(O)C(=N/CC)/C=C(O)C/1=N/CC [Compound 6, (3E, 6E)-3,6-bis(Ethylimino)-2-undecylcyclohexa-1,4-diene-1,4-diol] | 6.85 µM | 2.15 µM | 3.18 |
| CCCCCCCCCCCC1=C(O)C(=O)C=C(O)C1=O [Compound 1, 2,5-dihydroxy-3-undecyl-1,4-benzoquinone] | 6.42 µM | 2.98 µM | 2.15 |
| CCCCCCCCCCCC1=C(O)C(=O)C=C(NCCN(C)C)C1=O [Compound 3, 5-(2-(Dimethylamino)ethylamino)-2-hydroxy-3-undecylcyclohexa-2,5-diene-1,4-dione] | 3.58 µM | 1.65 µM | 2.17 |
| CCCCCCCCCCCC1=C(OC(C)=O)C(=O)C=C(OC(C)=O)C1=O [Compound 8, 3,6-Dioxo-2-undecylcyclohexa-1,4-diene-1,4-diyl diacetate] | 2.25 µM | 1.23 µM | 1.83 |
